Assay results reported in patent US20250320209A1, “Salts and Solid Forms of Sonrotoclax Intermediate” (BeOne Medicines I GmbH, priority 2022, published 2025).

How the values were obtained:
[1] = Salt formation of Compound 2 with seven acids in seven organic solvents: physical form obtained; type: physicochemical; conditions: for physical form of the obtained salt: in certain organic solvents (summary of Table 1); for physical form of Compound 2 salt: 10 mL, acid 1.73 mmol
Description: In one example, Compound 2 (1.0 g, 1.73 mmol) in MTBE (10 mL) solution and oxalic acid (0.16 g, 1.73 mmol) was added dropwise. The reaction mixture was stirred for about 6 hours and filtered to obtain a wet cake of methyl 4-(2-{(2S)-2-[2-(propan-2-yl)phenyl]pyrrolidin-1-yl}-7-azaspiro[3.5]nonan-7-yl)-2-[(1H-pyrrolo[2,3-b]pyridin-5-yl)oxy]benzoate oxalate salt (Compound 3).
The other acids were used as the following amounts, D-(−)-tartaric (0.26 g, 1.73 mmol), p-toluenesulfonic acid (0.3 g, 1.73 mmol), D-DTTA (0.67 g, 1.73 mmol), Citric acid (0.33 g, 1.73 mmol), Malic acid (0.23 g, 1.73 mmol), Maleic acid (0.20 g, 1.73 mmol); and the other organic solvents were used with 10 mL volume.

[2] = Properties of the solid oxalate salt of Compound 2 as stated in text

## COC(=O)c1ccc(N2CCC3(CC2)CC(N2CCC[C@H]2c2ccccc2C(C)C)C3)cc1Oc1cnc2[nH]ccc2c1.O=C(O)C(=O)O [Compound 3, methyl 4-(2-{(2S)-2-[2-(propan-2-yl)phenyl]pyrrolidin-1-yl}-7-azaspiro[3.5]nonan-7-yl)-2-[(1H-pyrrolo[2,3-b]pyridin-5-yl)oxy]benzoate oxalate salt]
[1]
  physical form of the obtained salt: solid form
[1]; solvent 2-MeTHF
  physical form of Compound 2 salt: oil
[1]; solvent Acetone
  physical form of Compound 2 salt: Clean solution
[1]; solvent DCM
  physical form of Compound 2 salt: Clean solution
[1]; solvent EA
  physical form of Compound 2 salt: oil
[1]; solvent IPAc
  physical form of Compound 2 salt: moisture
[1]; solvent MTBE
  physical form of Compound 2 salt: Fine solid
[1]; solvent MeOH
  physical form of Compound 2 salt: Clean solution
[2]; solid (wet cake) obtained from MTBE
  hydroscopic property: low
[2]; solid salt, no test described
  stability: very good

## Cc1ccc(C(=O)O[C@H](C(=O)O)[C@H](OC(=O)c2ccc(C)cc2)C(=O)O)cc1 [D-DTTA]
[1]
  physical form of the obtained salt: solid form
[1]; solvent 2-MeTHF
  physical form of Compound 2 salt: Clean solution
[1]; solvent Acetone
  physical form of Compound 2 salt: Clean solution
[1]; solvent DCM
  physical form of Compound 2 salt: Clean solution
[1]; solvent EA
  physical form of Compound 2 salt: Clean solution
[1]; solvent IPAc
  physical form of Compound 2 salt: oil
[1]; solvent MTBE
  physical form of Compound 2 salt: Fine solid
[1]; solvent MeOH
  physical form of Compound 2 salt: Clean solution

## Cc1ccc(S(=O)(=O)O)cc1 [p-toluenesulfonic acid]
[1]; solvent 2-MeTHF
  physical form of Compound 2 salt: Clean solution
[1]; solvent Acetone
  physical form of Compound 2 salt: Clean solution
[1]; solvent DCM
  physical form of Compound 2 salt: Clean solution
[1]; solvent EA
  physical form of Compound 2 salt: Clean solution
[1]; solvent IPAc
  physical form of Compound 2 salt: Clean solution
[1]; solvent MTBE
  physical form of Compound 2 salt: moisture absorption
[1]; solvent MeOH
  physical form of Compound 2 salt: Clean solution

## Citric acid
[1]; solvent 2-MeTHF
  physical form of Compound 2 salt: oil
[1]; solvent Acetone
  physical form of Compound 2 salt: Clean
[1]; solvent DCM
  physical form of Compound 2 salt: Clean
[1]; solvent EA
  physical form of Compound 2 salt: oil
[1]; solvent IPAc
  physical form of Compound 2 salt: moisture
[1]; solvent MTBE
  physical form of Compound 2 salt: moisture
[1]; solvent MeOH
  physical form of Compound 2 salt: Clean

## Maleic acid
[1]; solvent 2-MeTHF
  physical form of Compound 2 salt: Clean solution
[1]; solvent Acetone
  physical form of Compound 2 salt: Clean solution
[1]; solvent DCM
  physical form of Compound 2 salt: Clean solution
[1]; solvent EA
  physical form of Compound 2 salt: Clean solution
[1]; solvent IPAc
  physical form of Compound 2 salt: oil
[1]; solvent MTBE
  physical form of Compound 2 salt: moisture
[1]; solvent MeOH
  physical form of Compound 2 salt: Clean solution

## Malic acid
[1]; solvent 2-MeTHF
  physical form of Compound 2 salt: Clean solution
[1]; solvent Acetone
  physical form of Compound 2 salt: Clean solution
[1]; solvent DCM
  physical form of Compound 2 salt: Clean solution
[1]; solvent EA
  physical form of Compound 2 salt: oil
[1]; solvent IPAc
  physical form of Compound 2 salt: oil
[1]; solvent MTBE
  physical form of Compound 2 salt: moisture
[1]; solvent MeOH
  physical form of Compound 2 salt: Clean solution
